Experimental data from patent US9103790B2, “Linker for unimolecular FRET biosensor based on principle of fluorescence resonance energy transfer” (KYOTO UNIVERSITY, priority 2010, dated 2015).

What was measured:
[1] = tested on: EGF dependent-activation of ERK; experiment: Drug sensitivity test: FRET measurement of ERK activity in cell line stably expressing Eevee-ERK (3560 NES); type: cell-based, human; details: HeLa cells stably expressing Eevee-ERK (3560 NES); serial-diluted inhibitors; 25 ng/mL EGF; after 30 min; average of 30 or more cells
Procedure: FIG. 18A illustrates results when HeLa cells stably expressing Eevee-ERK were seeded onto a 96-well plate, were added thereto serial-diluted inhibitors and stimulated with 25 ng/mL EGF. ERK activities were automatically measured for 30 or more cells, averaged, and plotted. FIG. 18A illustrates results of DMSO controls.
A mammalian cell expression plasmid containing the gene of Eevee-ERK (3560 NES) described in Example 3 was inserted into a plasmid having a transposon recognition sequence. This plasmid and a transposon expression vector was co-transfected as previously reported and screened for biosensor-expressing cell lines by blasticidin [Yusa, K., R. Rad, J. Takeda, and A. Bradley. 2009. Generation of transgene-free induced pluripotent mouse stem cells by the piggyBac transposon. Nat. Methods 6 (5)363-369].
Cultured cell lines were seeded onto a 96-well culture plate. Serial-diluted inhibitors were added thereto. The cell lines were stimulated with 25 ng/mL EGF. After 30 min, ERK activities were measured as described in Example 3 (see FIGS. 18A to 18H). The average ERK activities of 30 or more cells were plotted. The following inhibitors were used: EGF receptor inhibitors (AG1478), MEK inhibitors (PD15035, PD184351), BRAF inhibitors (PLX4720), phosphatidylinositol 3-phosphate kinase inhibitors (LY294002), RSK inhibitors (BI-D1870) and JNK inhibitors (JNK inhibitor VIII).

PKA = experiment: Drug sensitivity test with transgenic mouse expressing Eevee-PKA (3536 NES), two-photon FRET imaging of small intestine; type: in vivo; details: intravenous injection; intermuscular nerve cell, intestinal smooth muscle, vascular smooth muscle
Text: FIG. 19 illustrates results when the transgenic mouse expressing Eevee-PKA (3536 NES) was intravenously injected with theophylline, which is a phosphodiesterase inhibitor, and actosin, which is a cyclic adenosine triphosphate analog, and measured for PKA activities.
The transgenic mouse expressing Eevee-PKA (3536 NES) generated in Example 10 was anesthetized with isoflurane. A small intestine of the mouse was time-lapse imaged by an inverted two-photon microscope IX81/FV1000 (product of Olympus Corporation). Cells were excited at 840 nm with a titanium-sapphire laser system (Mai Tai Deep See HP; product of Spectra-Physics, Inc.). CFP fluorescence and YFP fluorescence were acquired using BA 460-500 fluorescence filter (product of Olympus Corporation) and BA 520-560 fluorescence filter (product of Olympus Corporation), respectively. FRET images were obtained in the same manner as in Example 3.
The transgenic mouse was intravenously injected with theophylline, which is a phosphodiesterase inhibitor, and actosin, which is a cyclic adenosine triphosphate analog, and measured for PKA activities.

SMILES	inhibition of EGF dependent-activation of ERK [1]	PKA activities (FRET) (PKA)
COc1cc2ncnc(Nc3cccc(Cl)c3)c2cc1OC [AG1478]	effectively inhibited	–
COc1cc2ncnc(Nc3cccc(Br)c3)c2cc1OC [PD153035]	effectively inhibited	–
O=C(NOCC1CC1)c1ccc(F)c(F)c1Nc1ccc(I)cc1Cl [PD184352]	effectively inhibited	–
CCCC(=O)Nc1ncnc2c1ncn2[C@@H]1O[C@@H]2COP(=O)([O-])O[C@H]2[C@H]1OC(=O)CCC.[Na+] [actosin]	–	Changes in PKA activities
Cn1c(=O)c2[nH]cnc2n(C)c1=O [theophylline]	–	Changes in PKA activities
